The source of these data is patent US20110190503A1, “Thiazolopyridin-2-yloxy-phenyl and thiazolopyrazin-2-yloxy-phenyl amines as modulators of leukotriene A4 hydrolase” (Janssen Pharmaceutical NV, priority 2008, published 2011).

For test [1], the target named is T1, recombinant human LTA4 hydrolase (rhLTA4H) (Homo sapiens, UniProt P09960).
T1 construct: made in house; host or cells: Spodoptera frugiperda (Sf-9) cells, recombinant baculovirus (pFastBac1)
T1 sequence (P09960 1-611): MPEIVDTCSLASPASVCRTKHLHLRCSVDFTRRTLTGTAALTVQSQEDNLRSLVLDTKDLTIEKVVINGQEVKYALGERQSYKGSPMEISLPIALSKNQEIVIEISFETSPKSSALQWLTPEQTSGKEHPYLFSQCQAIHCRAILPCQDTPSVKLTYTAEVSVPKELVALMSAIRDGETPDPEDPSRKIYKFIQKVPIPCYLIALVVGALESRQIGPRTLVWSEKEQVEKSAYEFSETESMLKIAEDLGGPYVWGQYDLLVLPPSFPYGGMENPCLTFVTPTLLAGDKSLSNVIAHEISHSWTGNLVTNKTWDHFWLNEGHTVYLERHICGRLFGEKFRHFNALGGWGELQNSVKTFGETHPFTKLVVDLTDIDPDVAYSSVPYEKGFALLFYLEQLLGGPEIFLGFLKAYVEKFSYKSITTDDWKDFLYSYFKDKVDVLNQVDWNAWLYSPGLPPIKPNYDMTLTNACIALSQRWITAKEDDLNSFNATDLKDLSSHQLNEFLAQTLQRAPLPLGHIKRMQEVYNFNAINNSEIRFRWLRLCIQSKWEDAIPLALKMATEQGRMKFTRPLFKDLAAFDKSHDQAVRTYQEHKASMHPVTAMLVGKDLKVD
As to the kind of experiment: Recombinant human LTA4 hydrolase assay for LTA4 hydrolase inhibitor activity. The format is biochemical. In short, it runs like this: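 LTB4 formed from LTA4 substrate (free acid from the methyl ester) was quantified by enzyme immunoassay after a 30 min rt reaction. Enzyme was 10 ng Sf-9-expressed human LTA4 hydrolase, pre-incubated 10 min with compound.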

For a further test, the system named is neutrophil influx. Put plainly: Murine arachidonic acid-induced inflammation model: neutrophil influx in ear, myeloperoxidase activity (% Inh. MPO). It counts as in vivo. The following applies: Mus musculus, female Balb/c mice, 30 mg/kg oral gavage, ear biopsy 3 h after topical arachidonic acid, number of determinations in parentheses. In short, it runs like this: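 Female Balb/c mice were dosed orally at 30 mg/kg (20% cyclodextran/H2O). Ear biopsies at 3 h; MPO activity by TMB, A405, acetone ear subtracted; inhibition versus vehicle-dosed mice.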

Setting [2] is: rhLTA4H, LTA4 substrate, LTB4 by immunoassay, single determination or average, read-out: IC50.

Read-outs that look alike come from different tables or passages of the source.

As to `NC(=O)N1C[C@H]2C[C@@H]1CN2Cc1ccc(Oc2nc3ncccc3s2)cc1` [Example 266, (1R,4R)-5-[4-([1,3]Thiazolo[4,5-b]pyridin-2-yloxy)benzyl]-2,5-diazabicyclo[2.2.1]heptane-2-carboxamide], the IC50 in test [1] (setting [2]) turned out to be 2 nM. Further, the inhibition in vivo at 30 mg/kg with neutrophil influx came out at 85.8%.
In the case of `CC(=O)N1C[C@H]2C[C@@H]1CN2Cc1ccc(Oc2nc3ncccc3s2)cc1` [Example 265, 2-(4-{[(1R,4R)-5-Acetyl-2,5-diazabicyclo[2.2.1]hept-2-yl]methyl}phenoxy)[1,3]thiazolo[4,5-b]pyridine], the IC50 in test [1] (setting [2]) amounted to 11 nM. The inhibition in vivo at 30 mg/kg in the test with neutrophil influx was determined as 90.8%.
In the same order, the values of `CC(=O)N1C[C@@H]2C[C@H]1CN2CCOc1ccc(Oc2nc3ncccc3s2)cc1` [Example 14, 2-(4-{2-[(1S,4S)-5-Acetyl-2,5-diazabicyclo[2.2.1]hept-2-yl]ethoxy}phenoxy)[1,3]thiazolo[4,5-b]pyridine] are 7.5 ± 4.6 nM and 72.3%.
`NC(=O)N1C[C@@H]2C[C@H]1CN2Cc1ccc(Oc2nc3ncccc3s2)cc1` [Example 106, (1S,4S)-5-[4-([1,3]Thiazolo[4,5-b]pyridin-2-yloxy)benzyl]-2,5-diazabicyclo[2.2.1]heptane-2-carboxamide]: the IC50 in test [1] (setting [2]) came to 3.5 nM. Further, the inhibition in vivo at 30 mg/kg with neutrophil influx amounted to 95.2%.
In the same order, the values of `CC(=O)N1C[C@@H]2C[C@H]1CN2CCc1ccc(Oc2nc3ncccc3s2)cc1` [Example 75, 2-(4-{2-[(1S,4S)-5-Acetyl-2,5-diazabicyclo[2.2.1]hept-2-yl]ethyl}phenoxy)[1,3]thiazolo[4,5-b]pyridine] are 12 nM and 68.1%.
In the same order, the values of `NC(=O)C1CCN(CCOc2ccc(Oc3nc4ncccc4s3)cc2)CC1` [Example 31, 1-{2-[4-([1,3]Thiazolo[4,5-b]pyridin-2-yloxy)phenoxy]ethyl}piperidine-4-carboxamide] are 29 nM and 70.5%.
In the case of `CC(=O)N[C@@H]1C[C@H]2CC[C@@H](C1)N2Cc1ccc(Oc2nc3ncccc3s2)cc1` [Example 109, meso-N-{(3-exo)-8-[4-([1,3]Thiazolo[4,5-b]pyridin-2-yloxy)benzyl]-8-azabicyclo[3.2.1]oct-3-yl}acetamide], the IC50 in test [1] was determined as 0.97 nM. In the test on neutrophil influx, the inhibition in vivo at 30 mg/kg was found to be 71.5%.
Take `O=C1CCCN1C1CCN(Cc2ccc(Oc3nc4ncccc4s3)cc2)CC1` [Example 83, 1-{1-[4-([1,3]Thiazolo[4,5-b]pyridin-2-yloxy)benzyl]piperidin-4-yl}pyrrolidin-2-one]: the IC50 in test [1] (setting [2]) was found to be 6.3 nM. Further, the inhibition in vivo at 30 mg/kg with neutrophil influx was 88.2%.
On to `CC(=O)N[C@H]1C[C@H]2CC[C@@H](C1)N2Cc1ccc(Oc2nc3ncccc3s2)cc1` [Example 116, meso-N-{(3-endo)-8-[4-([1,3]Thiazolo[4,5-b]pyridin-2-yloxy)benzyl]-8-azabicyclo[3.2.1]oct-3-yl}acetamide], for which the IC50 in test [1] is 1 ± 0.51 nM. Besides, the inhibition in vivo at 30 mg/kg with neutrophil influx stood at 70%.
As to `CC(=O)N1C[C@H]2CC[C@@H](C1)N2CCc1ccc(Oc2nc3ncccc3s2)cc1` [Example 55, meso-2-(4-{2-[3-Acetyl-3,8-diazabicyclo[3.2.1]oct-8-yl]ethyl}phenoxy)[1,3]thiazolo[4,5-b]pyridine], the IC50 in test [1] (setting [2]) came out at 4.8 nM. Also, in the test with neutrophil influx, the inhibition in vivo at 30 mg/kg was found to be 73.5%.
Take `NC(=O)N1C[C@@H]2C[C@H]1CN2CCc1ccc(Oc2nc3ncccc3s2)cc1` [Example 45, (1S,4S)-5-{2-[4-([1,3]Thiazolo[4,5-b]pyridin-2-yloxy)phenyl]ethyl}-2,5-diazabicyclo[2.2.1]heptane-2-carboxamide]: the IC50 in test [1] (setting [2]) came to 3.9 nM. Moreover, the inhibition in vivo at 30 mg/kg with neutrophil influx worked out at 71.1%.
For the compound `CC(=O)N1C[C@@H]2C[C@H]1CN2Cc1ccc(Oc2nc3ncc(C)cc3s2)cc1` [Example 121, 2-(4-{[(1S,4S)-5-Acetyl-2,5-diazabicyclo[2.2.1]hept-2-yl]methyl}phenoxy)-6-methyl[1,3]thiazolo[4,5-b]pyridine], the IC50 in test [1] (setting [2]) came to 38 ± 17 nM. The inhibition in vivo at 30 mg/kg in the test with neutrophil influx was found to be 83%.
On the same counts, the results for `O=C1CCCN1C1CCN(CCOc2ccc(Oc3nc4ncccc4s3)cc2)CC1` [Example 32, 1-(1-{2-[4-([1,3]Thiazolo[4,5-b]pyridin-2-yloxy)phenoxy]ethyl}piperidin-4-yl)pyrrolidin-2-one] are 8.9 nM and 76%.
On the same counts, the results for `CC(=O)N1CC2CN(CCc3ccc(Oc4nc5ncccc5s4)cc3)CC2C1` (stereo not drawn) [Example 73, 2-{4-[2-(5-Acetylhexahydropyrrolo[3,4-c]pyrrol-2(1H)-yl)ethyl]phenoxy}[1,3]thiazolo[4,5-b]pyridine] are 12 nM and 79.4%.
Turning to `CC(=O)N1C[C@H]2C[C@@H]1CN2CCOc1ccc(Oc2nc3ncccc3s2)cc1` [Example 267, 2-(4-{2-[(1R,4R)-5-Acetyl-2,5-diazabicyclo[2.2.1]hept-2-yl]ethoxy}phenoxy)[1,3]thiazolo[4,5-b]pyridine], in test [1] (setting [2]), the concentration for half-maximal inhibition (IC50) was found to be 3 nM. Further, the inhibition in vivo at 30 mg/kg in the test on neutrophil influx was 90.6%.

As usually defined, the IC50 is the concentration that inhibits the measured activity by half. Usually inhibition in vivo stands for the percentage by which the read-out fell short of the control.
